Measured values published in US20230372348A1, “LIPID FORMULATIONS OF TRIAZOLOQUINAZOLINONE COMPOUNDS” (Gabather AB, priority 2020, published 2023).

Columns and labels:
[1] = Single dose pharmacokinetic evaluation of formulations in male Sprague Dawley rats; format: in vivo; settings: plasma, iv, rat
Description: Single dose pharmacokinetic evaluations of formulations F12-F22 were carried out using male Sprague Dawley rats using conditions as described in Table 1.
Animal ID's were labelled by pen marks on tail and body weight was recorded for calculation of test item volume before administration. Blood was collected capillary from vena saphena from the rats in EDTA coated collection tubes and centrifuged for five minutes at 2000G. Plasma was transferred to pre-labelled Eppendorf tubes and immediately stored in −20° C. The pharmacokinetic analysis was performed using PK Solutions 2.0™, Noncompartmental Pharmacokinetic Data Analysis software.
Cmax (nM) is the maximum concentration. AUC 0-24 (nM*h) is the area under the curve over 24 hours. Tmax (h) is the maximum time in hours. F % is bioavailability. Frel % is the relative bioavailability.

[2] = Single ascending dose (SAD) study, pharmacokinetics in healthy male subjects; format: in vivo, human
Description: Lipid formulations containing PHOSAL® 53 MCT delivered higher exposure in rat and dog when compared to other formulation (e.g., nanosuspension formulation and PEG formulations). […] Formulation 1H containing 70% PHOSAL® 53 MCT and 30% Labrasol® ALF was selected for manufacturing of soft gelatin capsules for clinical trials with a drug formulation fill weight of 500 mg and a total capsule weight is 696 mg. Two dose strength (0.1 mg/subject and 2 mg/subject) and placebo were produced according to GMP for clinical testing.
The clinical development programme in healthy volunteers started with a double-blind, randomised, placebo controlled single ascending dose (SAD) study in males. Seven dose cohorts received increasing oral doses of Compound (1a) or placebo, dose range 0.05-2 mg. Each cohort consisted of 5-6 subjects receiving Compound (1a) and 2 subjects receiving placebo, with the primary objective to evaluate safety and tolerability, the secondary objective being evaluation of pharmacokinetics (PK).
A summary of PK results from the SAD study are shown below in Table 8.

[3] = system: benzodiazepine site of the GABAA receptor complex; settings: cited from earlier work

bioavailability ([1]; intravenously 1 mg/kg (reference), read-out: F % (bioavailability)): 100%
AUC(0-t) ([1]; intravenously 1 mg/kg, read-out: AUC 0-24): 1.18 µM·h
dose proportionality of Cmax ([2]; dose range 0.05 mg-2 mg): dose proportional
dose proportionality of exposure ([2]; dose range 0.05 to 2 mg, oral soft gelatin capsules, fasting healthy male volunteers): close to dose proportional
Compound: Cc1ccc(-n2nc3c4cc(Cc5ccccc5)ccc4[nH]c(=O)n3c2=O)cc1 [Compound (1a), 9-benzyl-2-(4-methylphenyl)-2,6-dihydro[1,2,4]triazolo[4,3-c]quinazoline-3,5-dione]
selectivity [3]: selective for the GABAA receptor complex
inhibition of 3H-Flumazenil binding ([3]; rat membrane preparations): very potent inhibitor
potency in displacing 3H-Flumazenil relative to diazepam ([3]; rat membrane preparations, more potent than diazepam): 10 times
